# Experimental data from ChEMBL document CHEMBL1909046, “DrugMatrix in vitro pharmacology data”.
# Key:
# [1] = DRUGMATRIX: Purinergic P2X radioligand binding (ligand: [3H] alpha, beta-Methylene-ATP); format: cell membranes, Oryctolagus cuniculus, New Zealand albino, Urinary bladder, Membrane; conditions: Not Active = under 50% inhibition at 10 µM
# [2] = DRUGMATRIX: Nicotinic Acetylcholine radioligand binding (ligand: [125I] Epibatidine); format: cell membranes, Membrane; conditions: imr-32; Not Active = under 50% inhibition at 10 µM
# [3] = DRUGMATRIX: Interleukin IL-1 radioligand binding (ligand: [125I] interleukin 1beta); format: cell membranes, Membrane; conditions: nih3t3; Not Active = under 50% inhibition at 10 µM
# [4] = DRUGMATRIX: Serotonin (5-Hydroxytryptamine) 5-HT3 radioligand binding (ligand: [3H] GR-65630); format: cell membranes, Membrane; conditions: hek293, Not Active = under 50% inhibition at 10 µM
# [5] = DRUGMATRIX: GABAA, Chloride Channel, TBOB radioligand binding (ligand: [3H] TBOB); format: cell membranes, Rattus norvegicus, Wistar, Cerebral cortex, Membrane; conditions: Not Active = under 50% inhibition at 10 µM
# [6] = molecular target: T1, Muscarinic acetylcholine receptor M5 (Homo sapiens, UniProt P08912); format: cell membranes, CHO-K1, Membrane; conditions: cho-k1; note: in other assays of this panel Not Active means under 50% inhibition at 10 µM
# T1 sequence (P08912 whole entry): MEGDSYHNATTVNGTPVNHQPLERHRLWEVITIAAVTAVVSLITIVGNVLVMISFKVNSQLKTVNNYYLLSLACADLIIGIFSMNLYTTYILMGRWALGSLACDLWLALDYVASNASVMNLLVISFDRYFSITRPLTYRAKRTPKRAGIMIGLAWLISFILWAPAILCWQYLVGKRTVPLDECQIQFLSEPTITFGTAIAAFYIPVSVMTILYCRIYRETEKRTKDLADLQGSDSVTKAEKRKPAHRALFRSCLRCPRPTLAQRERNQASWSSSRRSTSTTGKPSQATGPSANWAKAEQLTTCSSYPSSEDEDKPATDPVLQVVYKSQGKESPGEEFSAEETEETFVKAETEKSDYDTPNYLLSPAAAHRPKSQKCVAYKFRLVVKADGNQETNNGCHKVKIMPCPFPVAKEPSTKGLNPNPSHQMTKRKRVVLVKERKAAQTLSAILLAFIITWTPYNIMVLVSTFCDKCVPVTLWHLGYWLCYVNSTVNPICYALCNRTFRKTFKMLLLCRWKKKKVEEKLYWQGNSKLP
# Adenosine receptor A2a = Adenosine receptor A2a (Homo sapiens, UniProt P29274); experiment: DRUGMATRIX: Adenosine A2A radioligand binding (ligand: […]); format: cell membranes, HEK293, Membrane; conditions: Not Active = under 50% inhibition at 10 µM
# Chain of Adenosine receptor A2a (P29274 whole entry): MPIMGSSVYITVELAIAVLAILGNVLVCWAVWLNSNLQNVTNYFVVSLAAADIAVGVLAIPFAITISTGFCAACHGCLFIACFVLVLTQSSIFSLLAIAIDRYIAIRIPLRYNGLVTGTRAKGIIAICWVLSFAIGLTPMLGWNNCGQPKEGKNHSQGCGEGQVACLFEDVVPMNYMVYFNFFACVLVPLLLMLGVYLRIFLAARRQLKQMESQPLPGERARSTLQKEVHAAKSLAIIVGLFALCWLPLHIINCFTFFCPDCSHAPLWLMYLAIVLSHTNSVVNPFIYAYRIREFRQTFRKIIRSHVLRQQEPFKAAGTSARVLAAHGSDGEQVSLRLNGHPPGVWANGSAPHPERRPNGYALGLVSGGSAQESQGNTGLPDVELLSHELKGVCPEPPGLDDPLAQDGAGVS
Molecule,IC50 [1],Ki [1],IC50 [2],Ki [2],IC50 [3],Ki [3],IC50 [4],Ki [4],IC50 [5],Ki [5],IC50 [6],IC50 (Adenosine receptor A2a; hek293),IC50 (Adenosine receptor A2a; read-out: IC50) [nM],Ki (Adenosine receptor A2a; read-out: Ki) [nM],IC50 ([4]; read-out: IC50) [nM],Ki ([4]; read-out: Ki) [nM],Ki [6],Ki (Adenosine receptor A2a; hek293)
CC(C)[C@H]1CC[C@H](C(=O)N[C@H](Cc2ccccc2)C(=O)O)CC1 [NATEGLINIDE],Not Active,Not Active,Not Active,Not Active,Not Active,Not Active,Not Active,Not Active,Not Active,Not Active,Not Active,Not Active,–,–,–,–,–,–
CCN[C@@H]1C[C@H](N)[C@@H](O[C@H]2OC(CN)=CC[C@H]2N)[C@H](O)[C@H]1O[C@H]1OC[C@](C)(O)[C@H](NC)[C@H]1O [NETILMICIN],Not Active,Not Active,Not Active,Not Active,Not Active,Not Active,Not Active,Not Active,Not Active,Not Active,Not Active,Not Active,–,–,–,–,–,–
COC(=O)C1=C(C)NC(C)=C(C(=O)OCC(C)C)C1c1ccccc1[N+](=O)[O-] (stereo not drawn) [NISOLDIPINE],Not Active,Not Active,Not Active,Not Active,Not Active,Not Active,Not Active,Not Active,Not Active,Not Active,Not Active,–,4060,2280,–,–,–,–
CCOC(=O)C1=C(C)NC(C)=C(C(=O)OC)C1c1cccc([N+](=O)[O-])c1 (stereo not drawn) [NITRENDIPINE],Not Active,Not Active,Not Active,Not Active,Not Active,Not Active,Not Active,Not Active,Not Active,Not Active,Not Active,Not Active,–,–,–,–,–,–
C#C[C@]1(OC(C)=O)CC[C@H]2[C@@H]3CCC4=CC(=O)CC[C@@H]4[C@H]3CC[C@@]21C [NORETHINDRONE ACETATE],Not Active,Not Active,Not Active,Not Active,Not Active,Not Active,Not Active,Not Active,Not Active,Not Active,Not Active,Not Active,–,–,–,–,–,–
COc1ccc2[nH]c([S+]([O-])Cc3ncc(C)c(OC)c3C)nc2c1 (stereo not drawn) [OMEPRAZOLE],Not Active,Not Active,Not Active,Not Active,Not Active,Not Active,Not Active,Not Active,Not Active,Not Active,Not Active,Not Active,–,–,–,–,–,–
Cc1nccn1CC1CCc2c(c3ccccc3n2C)C1=O (stereo not drawn) [ONDANSETRON],Not Active,Not Active,Not Active,Not Active,Not Active,Not Active,–,–,Not Active,Not Active,Not Active,Not Active,–,–,9.29,2.09,–,–
CCn1cc(C(=O)O)c(=O)c2cc(F)c(N3CCN(C)CC3)cc21 [PEFLOXACIN],Not Active,Not Active,Not Active,Not Active,Not Active,Not Active,Not Active,Not Active,Not Active,Not Active,Not Active,Not Active,–,–,–,–,–,–
CCCCOc1ccc(OCCCN2CCOCC2)cc1 [PRAMOXINE],Not Active,Not Active,Not Active,Not Active,Not Active,Not Active,Not Active,Not Active,Not Active,Not Active,Not Active,Not Active,–,–,–,–,–,–
O=C(C1CCCCC1)N1CC(=O)N2CCc3ccccc3C2C1 (stereo not drawn) [PRAZIQUANTEL],Not Active,Not Active,Not Active,Not Active,Not Active,Not Active,Not Active,Not Active,Not Active,Not Active,Not Active,Not Active,–,–,–,–,–,–
CCN(CC)CCOC(=O)c1ccc(N)cc1 [PROCAINE],Not Active,Not Active,Not Active,Not Active,Not Active,Not Active,Not Active,Not Active,Not Active,Not Active,Not Active,Not Active,–,–,–,–,–,–
CCCN(CCC)C(=O)C(CCC(=O)O)NC(=O)c1ccccc1 (stereo not drawn) [PROGLUMIDE],Not Active,Not Active,Not Active,Not Active,Not Active,Not Active,Not Active,Not Active,Not Active,Not Active,Not Active,Not Active,–,–,–,–,–,–
NC(=O)c1cnccn1 [PYRAZINAMIDE],Not Active,Not Active,Not Active,Not Active,Not Active,Not Active,Not Active,Not Active,Not Active,Not Active,Not Active,Not Active,–,–,–,–,–,–
Cc1cc2cc3c(C)cc(=O)oc3c(C)c2o1 [TRIOXSALEN],Not Active,Not Active,Not Active,Not Active,Not Active,Not Active,Not Active,Not Active,Not Active,Not Active,Not Active,–,1310,737,–,–,–,–
CCCC(CCC)C(=O)O [VALPROIC ACID],Not Active,Not Active,Not Active,Not Active,Not Active,Not Active,Not Active,Not Active,Not Active,Not Active,Not Active,Not Active,–,–,–,–,–,–
CCC1=C[C@@H]2CN(C1)Cc1c([nH]c3ccccc13)[C@@](C(=O)OC)(c1cc3c(cc1OC)N(C)[C@H]1[C@@](O)(C(=O)OC)[C@H](OC(C)=O)[C@]4(CC)C=CCN5CC[C@]31[C@@H]54)C2 [VINORELBINE],Not Active,Not Active,Not Active,Not Active,Not Active,Not Active,Not Active,Not Active,Not Active,Not Active,Not Active,Not Active,–,–,–,–,–,–
CADMIUM DICHLORIDE,Not Active,Not Active,Not Active,Not Active,Not Active,Not Active,Not Active,Not Active,Not Active,Not Active,Not Active,Not Active,–,–,–,–,Not Active,Not Active
